From paper PMC8074287, “Analgesic and Anticancer Activity of Benzoxazole Clubbed 2-Pyrrolidinones as Novel Inhibitors of Monoacylglycerol Lipase” (Molecules, 2021)

Assays:
A498 = assay: NCI60 single-dose SRB assay; assay type: cell-based, human; conditions: A498, Renal Cancer, 10 μM
Protocol: (§1) Compounds 19 and 20 were supplied to National Cancer Institute (USA), for sulforhodamine B (SRB) assay and anticancer screening. Single-dose (10 µM) assay results for compounds 19 and 20 were provided as a mean of percent growth (% G) and growth inhibition (% GI) against 60 cell lines of nine types of cancers and are tabulated in Table 4. […] Both the compounds 19 and 20 were also found active on UO-31 renal cancer cell line with % GI of 21.18 and 29.95, respectively.
(§2) Compounds 19 and 20 were supplied to National Cancer Institute (Bethesda, Maryland, USA), for in vitro sulforhodamine B (SRB) assay, anticancer screening on 60 cell lines of cancers of leukemia, melanoma, and tumors of the kidney, brain, breast, lung, colon, ovary, and prostate, as per their standard protocol. One dose anticancer results (NCI, USA) of compounds 19 and 20 are provided in the Supplementary Materials.

A549/ATCC = assay: NCI60 single-dose SRB assay; assay type: cell-based, human; conditions: Non-Small Cell Lung Cancer, 10 μM
Protocol: as §1, §2

CAKI-1 = assay: NCI60 single-dose SRB assay; assay type: cell-based, human; conditions: CAKI-1, Renal Cancer, 10 μM
Protocol: as §1, §2

CCRF-CEM = assay: NCI60 single-dose SRB assay; assay type: cell-based, human; conditions: Leukemia, 10 μM
Protocol: as §1, §2

COLO 205 = assay: NCI60 single-dose SRB assay; assay type: cell-based, human; conditions: COLO 205, Colon Cancer, 10 μM
Protocol: as §1, §2

DU-145 = assay: NCI60 single-dose SRB assay; assay type: cell-based, human; conditions: DU-145, Prostate Cancer, 10 μM
Protocol: as §1, §2

HCT-15 = assay: NCI60 single-dose SRB assay; assay type: cell-based, human; conditions: HCT-15, Colon Cancer, 10 μM
Protocol: as §1, §2

HS 578T = assay: NCI60 single-dose SRB assay; assay type: cell-based, human; conditions: Breast Cancer, 10 μM
Protocol: as §1, §2

MALME-3M = assay: NCI60 single-dose SRB assay; assay type: cell-based, human; conditions: Melanoma, 10 μM
Protocol: as §1, §2

MDA-MB-231/ATCC = assay: NCI60 single-dose SRB assay; assay type: cell-based, human; conditions: Breast Cancer, 10 μM
Protocol: as §1, §2

MDA-MB-435 = assay: NCI60 single-dose SRB assay; assay type: cell-based, human; conditions: MDA-MB-435, Melanoma, 10 μM
Protocol: as §1, §2

MDA-MB-468 = assay: NCI60 single-dose SRB assay; assay type: cell-based, human; conditions: MDA-MB-468, Breast Cancer, 10 μM
Protocol: as §1, §2

SF-295 = assay: NCI60 single-dose SRB assay; assay type: cell-based, human; conditions: SF-295, CNS Cancer, 10 μM
Protocol: as §1, §2

SK-MEL-28 = assay: NCI60 single-dose SRB assay; assay type: cell-based, human; conditions: SK-MEL-28, Melanoma, 10 μM
Protocol: as §1, §2

SK-MEL-2 = assay: NCI60 single-dose SRB assay; assay type: cell-based, human; conditions: SK-MEL-2, Melanoma, 10 μM
Protocol: as §1, §2

SK-MEL-5 = assay: NCI60 single-dose SRB assay; assay type: cell-based, human; conditions: SK-MEL-5, Melanoma, 10 μM
Protocol: as §1, §2

SK-OV-3 = assay: NCI60 single-dose SRB assay; assay type: cell-based, human; conditions: SK-OV-3, Ovarian Cancer, 10 μM
Protocol: as §1, §2

SNB-75 = assay: NCI60 single-dose SRB assay; assay type: cell-based, human; conditions: SNB-75, CNS Cancer, 10 μM
Protocol: as §1, §2

SW-620 = assay: NCI60 single-dose SRB assay; assay type: cell-based, human; conditions: SW-620, Colon Cancer, 10 μM
Protocol: as §1, §2

UO-31 = assay: NCI60 single-dose SRB assay; assay type: cell-based, human; conditions: UO-31, Renal Cancer, 10 μM
Protocol: as §1, §2

hMAGL = target: T1, hMAGL (Homo sapiens, UniProt Q99685); assay: Human MAGL inhibition assay (Cayman's assay kit)
T1 sequence (Q99685 1-303): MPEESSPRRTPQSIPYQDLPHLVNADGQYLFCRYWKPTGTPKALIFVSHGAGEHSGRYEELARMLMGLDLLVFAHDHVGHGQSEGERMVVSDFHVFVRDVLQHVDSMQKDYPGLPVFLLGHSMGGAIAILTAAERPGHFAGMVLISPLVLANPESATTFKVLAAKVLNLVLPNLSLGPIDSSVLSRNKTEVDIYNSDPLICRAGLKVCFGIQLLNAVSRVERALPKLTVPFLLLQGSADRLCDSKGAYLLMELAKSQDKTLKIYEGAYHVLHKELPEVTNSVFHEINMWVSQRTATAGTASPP

hFAAH = target: T2, hFAAH (Homo sapiens, UniProt O00519); assay: Human FAAH inhibition assay (Cayman's assay kit); conditions: IC50, mean ± SEM (n = 3)
T2 sequence (O00519 1-579): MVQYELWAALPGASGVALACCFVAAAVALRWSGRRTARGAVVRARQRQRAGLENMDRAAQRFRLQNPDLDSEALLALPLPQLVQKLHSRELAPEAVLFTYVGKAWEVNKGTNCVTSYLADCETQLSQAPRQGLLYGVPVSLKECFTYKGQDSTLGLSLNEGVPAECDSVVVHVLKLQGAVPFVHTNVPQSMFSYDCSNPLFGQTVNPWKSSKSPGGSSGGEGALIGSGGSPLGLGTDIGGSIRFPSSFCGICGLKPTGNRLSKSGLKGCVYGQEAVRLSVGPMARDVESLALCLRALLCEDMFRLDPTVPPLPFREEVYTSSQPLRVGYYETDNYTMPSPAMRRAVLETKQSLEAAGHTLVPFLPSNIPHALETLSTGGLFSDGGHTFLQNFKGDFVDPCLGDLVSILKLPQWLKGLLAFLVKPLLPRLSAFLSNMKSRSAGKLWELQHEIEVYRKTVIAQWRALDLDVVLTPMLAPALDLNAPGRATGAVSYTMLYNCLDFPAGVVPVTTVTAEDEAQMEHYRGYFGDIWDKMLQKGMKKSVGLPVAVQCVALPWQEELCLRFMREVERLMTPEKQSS

## O=C1CC(c2nc3ccccc3o2)CN1c1ccc([N+](=O)[O-])cc1 (centres unmarked) [Compound 19, 4-(Benzo[d]oxazol-2-yl)-1-(4-nitrophenyl)pyrrolidin-2-one]
A498
  % G: 113.46%
  % GI: −13.46%
A549/ATCC
  % G: 100.60%
  % GI: −0.60%
CAKI-1
  % G: 97.19%
  % GI: 2.81%
CCRF-CEM
  % G: 93.58%
  % GI: 6.42%
COLO 205
  % G: 103.79%
  % GI: −3.79%
DU-145
  % G: 110.09%
  % GI: −10.09%
HCT-15
  % G: 98.10%
  % GI: 1.9%
HS 578T
  % G: 101.81%
  % GI: −1.81%
MALME-3M
  % G: 88.53%
  % GI: 11.47%
MDA-MB-231/ATCC
  % G: 88.41%
  % GI: 11.59%
MDA-MB-435
  % G: 95.05%
  % GI: 4.95%
MDA-MB-468
  % G: 98.03%
  % GI: 1.97%
SF-295
  % G: 98.21%
  % GI: 1.79%
SK-MEL-28
  % G: 111.25%
  % GI: −11.25%
SK-MEL-2
  % G: 102.31%
  % GI: −2.31%
SK-MEL-5
  % G: 98.72%
  % GI: 1.28%
SK-OV-3
  % G: 88.34%
  % GI: 11.66%
SNB-75
  % G: 64.51%
  % GI: 35.49%
SW-620
  % G: 102.52%
  % GI: −2.52%
UO-31
  % G: 78.82%
  % GI: 21.18%
hMAGL
  IC50: 0.0084 ± 0.0019 µM
hFAAH
  IC50: 55 ± 2.7 µM

## NS(=O)(=O)c1ccc(N2CC(c3nc4ccccc4o3)CC2=O)cc1 (centres unmarked) [Compound 20, 4-(4-(Benzo[d]oxazol-2-yl)-2-oxopyrrolidin-1-yl)benzenesulfonamide]
A498
  % G: 113.94%
  % GI: −13.94%
A549/ATCC
  % G: 95.28%
  % GI: 4.72%
CAKI-1
  % G: 92.35%
  % GI: 7.65%
CCRF-CEM
  % G: 94.48%
  % GI: 5.52%
COLO 205
  % G: 104.05%
  % GI: −4.05%
DU-145
  % G: 111.62%
  % GI: −11.62%
HCT-15
  % G: 101.16%
  % GI: −1.16%
HS 578T
  % G: 104.19%
  % GI: −4.19%
MALME-3M
  % G: 93.29%
  % GI: 6.71%
MDA-MB-231/ATCC
  % G: 80.11%
  % GI: 19.89%
MDA-MB-435
  % G: 100.55%
  % GI: −0.55%
MDA-MB-468
  % G: 100.34%
  % GI: −0.34%
SF-295
  % G: 93.71%
  % GI: 6.29%
SK-MEL-28
  % G: 101.79%
  % GI: −1.79%
SK-MEL-2
  % G: 111.54%
  % GI: −11.54%
SK-MEL-5
  % G: 98.82%
SK-OV-3
  % G: 94.77%
  % GI: 5.23%
SNB-75
  % G: 68.12%
  % GI: 31.88%
SW-620
  % G: 102.95%
  % GI: −2.95%
UO-31
  % G: 70.05%
  % GI: 29.95%
hMAGL
  IC50: 0.0076 ± 0.0008 µM
hFAAH
  IC50: 68 ± 2.1 µM
